In ChEMBL document CHEMBL3232771, “Synthesis and positive inotropic evaluation of [1,2,4]triazolo[3,4-a]phthalazine and tetrazolo[5,1-a]phthalazine derivatives bearing substituted piperazine moieties” (2014):
Active and inactive are the calls of the source. No cut-off for these calls is given here.

Assays:
Oryctolagus cuniculus [1] = organism: Oryctolagus cuniculus; assay: Positive inotropic activity in perfused beating rabbit atrium assessed as increase in stroke volume at 30 umol/l relative to control; assay type: functional, tissue-based; details: Cardiac atrium
Heart = assay: Positive inotropic activity in rabbit heart assessed as increase in left atrium stroke volume at 3 X 10^-5 M; assay type: functional, Oryctolagus cuniculus, Cardiac atrium
Oryctolagus cuniculus [2] = organism: Oryctolagus cuniculus; assay: Positive inotropic activity in perfused rabbit atrium assessed as increase in stroke volume at 1 X 10^-5 to 10^-4 M relative to control; details: Cardiac atrium
Oryctolagus cuniculus [3] = organism: Oryctolagus cuniculus; assay: Positive inotropic activity in perfused rabbit atrium assessed as increase in stroke volume at 30 umol/l in presence of L-type Ca2+ channel blocker nifedipine relative to control; assay type: functional, tissue-based; details: Cardiac atrium
Oryctolagus cuniculus [4] = organism: Oryctolagus cuniculus; assay: Positive inotropic activity in perfused rabbit atrium assessed as increase in stroke volume at 30 umol/l in presence of PKA inhibitor H-89 relative to control; assay type: functional, tissue-based; details: Cardiac atrium
Oryctolagus cuniculus [5] = organism: Oryctolagus cuniculus; assay: Positive inotropic activity in perfused rabbit atrium assessed as increase in stroke volume at 30 umol/l in presence of adenylate cyclase activator forskolin relative to control; assay type: functional, tissue-based; details: Cardiac atrium
[6] = Oryctolagus cuniculus, Cardiac atrium

Compound | Activity (Oryctolagus cuniculus [1]) | Activity (Heart) [%] | Activity (Heart; [6]) | also measured
Cc1ccc(/C=C/C(=O)N2CCN(c3nn4nnnc4c4ccccc34)CC2)cc1 | Active | 2.74 | – | –
O=C(c1ccccc1)N1CCN(c2nn3cnnc3c3ccccc23)CC1 | – | – | inactive | –
O=C(/C=C/c1cccc(Cl)c1)N1CCN(c2nn3cnnc3c3ccccc23)CC1 | – | – | inactive | –
Cc1ccc(/C=C/C(=O)N2CCN(c3nn4cnnc4c4ccccc34)CC2)cc1 | Active | 14.87 | – | Activity (Oryctolagus cuniculus [2]): Active
Cc1[nH]c(=O)c(C#N)cc1-c1ccncc1 [MILRINONE] | – | 2.46 | – | –
O=C(c1ccc(Cl)cc1)N1CCN(c2nn3nnnc3c3ccccc23)CC1 | – | 2.05 | – | –
Cc1ccc(C(=O)N2CCN(c3nn4nnnc4c4ccccc34)CC2)cc1 | Active | 13.46 | – | –
O=C(c1cccc(Br)c1)N1CCN(c2nn3cnnc3c3ccccc23)CC1 | Active | 8.49 | – | –
COc1cccc(C(=O)N2CCN(c3nn4cnnc4c4ccccc34)CC2)c1 | – | 0.95 | – | –
O=C(/C=C/c1cccc(Cl)c1)N1CCN(c2nn3nnnc3c3ccccc23)CC1 | – | – | inactive | –
O=C(c1cccc(Br)c1)N1CCN(c2nn3nnnc3c3ccccc23)CC1 | – | – | inactive | –
O=C(c1ccc(F)cc1)N1CCN(c2nn3cnnc3c3ccccc23)CC1 | Active | 2.91 | – | –
O=C(/C=C/c1ccc(F)cc1)N1CCN(c2nn3cnnc3c3ccccc23)CC1 | – | – | inactive | –
O=C(/C=C/c1ccccc1)N1CCN(c2nn3cnnc3c3ccccc23)CC1 | – | – | inactive | –
O=C(c1ccc(Br)cc1)N1CCN(c2nn3nnnc3c3ccccc23)CC1 | Active | 7.49 | – | –
COc1ccc(C(=O)N2CCN(c3nn4nnnc4c4ccccc34)CC2)cc1 | Active | 9.39 | – | –
COc1cccc(C(=O)N2CCN(c3nn4nnnc4c4ccccc34)CC2)c1 | – | 1.94 | – | –
O=C(/C=C/c1cccc(Br)c1)N1CCN(c2nn3cnnc3c3ccccc23)CC1 | – | – | inactive | –

Compound | Activity (Oryctolagus cuniculus [1]) | Activity (Heart) [%] | Activity (Heart; [6]) | also measured
COc1cccc(/C=C/C(=O)N2CCN(c3nn4cnnc4c4ccccc34)CC2)c1 | Active | 4.13 | – | –
O=C(/C=C/c1ccccc1)N1CCN(c2nn3nnnc3c3ccccc23)CC1 | Active | 8.09 | – | –
O=C(/C=C/c1cccc(Br)c1)N1CCN(c2nn3nnnc3c3ccccc23)CC1 | – | – | inactive | –
O=C(/C=C/c1ccc(Br)cc1)N1CCN(c2nn3cnnc3c3ccccc23)CC1 | – | – | inactive | –
COc1ccc(CN2CCN(c3nn4nnnc4c4ccccc34)CC2)cc1 | – | 12.02 | – | –
O=C(/C=C/c1ccc(Br)cc1)N1CCN(c2nn3nnnc3c3ccccc23)CC1 | – | – | inactive | –
Cc1ccc(C(=O)N2CCN(c3nn4cnnc4c4ccccc34)CC2)cc1 | Active | 19.15 | – | Activity (Oryctolagus cuniculus [3]): inactive; Activity (Oryctolagus cuniculus [4]): inactive; Activity (Oryctolagus cuniculus [5]): Active; Activity (Oryctolagus cuniculus [2]): Active
O=C(c1cccc(Cl)c1)N1CCN(c2nn3cnnc3c3ccccc23)CC1 | Active | 2.56 | – | –
COc1ccc(C(=O)N2CCN(c3nn4cnnc4c4ccccc34)CC2)cc1 | Active | 3.68 | – | –
O=C(/C=C/c1ccc(F)cc1)N1CCN(c2nn3nnnc3c3ccccc23)CC1 | – | – | inactive | –
O=C(/C=C/c1ccc(Cl)cc1)N1CCN(c2nn3cnnc3c3ccccc23)CC1 | – | – | inactive | –
O=C(/C=C/c1ccc(Cl)cc1)N1CCN(c2nn3nnnc3c3ccccc23)CC1 | – | – | inactive | –
O=C(c1ccccc1)N1CCN(c2nn3nnnc3c3ccccc23)CC1 | – | – | inactive | –
O=C(c1cccc(Cl)c1)N1CCN(c2nn3nnnc3c3ccccc23)CC1 | – | 0.23 | – | –
O=C(c1ccc(Cl)cc1)N1CCN(c2nn3cnnc3c3ccccc23)CC1 | Active | 13.33 | – | –
O=C(c1ccc(Br)cc1)N1CCN(c2nn3cnnc3c3ccccc23)CC1 | Active | 3.65 | – | –
COc1cccc(/C=C/C(=O)N2CCN(c3nn4nnnc4c4ccccc34)CC2)c1 | Active | 5.35 | – | –
O=C(c1ccc(F)cc1)N1CCN(c2nn3nnnc3c3ccccc23)CC1 | Active | 4.73 | – | –
